From the kinase profiling compilation of Christmann-Franck et al. (2016)

What was measured:
Experiment in all cases: KINOMEscan competition binding
Conditions in all cases: compound 2.0 µM
NUAK2 (human) = NUAK2 (human) (UniProt Q9H093)
MAPK1 (human) = MAPK1 (human) (UniProt P28482)
[1] = molecular target: JAK1 JH2 pseudokinase (human) (UniProt P23458)
PHKG1 (human) = PHKG1 (human) (UniProt Q16816)
CAMK2A (human) = CAMK2A (human) (UniProt Q9UQM7)
PAK6 (human) = PAK6 (human) (UniProt Q9NQU5)
EGFR (human) = EGFR (human) (UniProt P00533)
ANKK1 (human) = ANKK1 (human) (UniProt Q8NFD2)
RPS6KA3 KD1 (human) = RPS6KA3 KD1 (human) (UniProt P51812)
TAOK1 (human) = TAOK1 (human) (UniProt Q7L7X3)
STK16 (human) = STK16 (human) (UniProt O75716)
YES1 (human) = YES1 (human) (UniProt P07947)
MAP3K6 (human) = MAP3K6 (human) (UniProt O95382)
LYN (human) = LYN (human) (UniProt P07948)
MYLK2 (human) = MYLK2 (human) (UniProt Q9H1R3)
MAP2K4 (human) = MAP2K4 (human) (UniProt P45985)
CLK4 (human) = CLK4 (human) (UniProt Q9HAZ1)
CHUK (human) = CHUK (human) (UniProt O15111)
AAK1 (human) = AAK1 (human) (UniProt Q2M2I8)
CAMK1G (human) = CAMK1G (human) (UniProt Q96NX5)
AKT2 (human) = AKT2 (human) (UniProt P31751)
EIF2AK1 (human) = EIF2AK1 (human) (UniProt Q9BQI3)
MAPK14 (human) = MAPK14 (human) (UniProt Q16539)
[2] = system: FLT3 (human), P36888 [D835H]
RPS6KA5 KD1 (human) = RPS6KA5 KD1 (human) (UniProt O75582)
FLT3 (human) = FLT3 (human) (UniProt P36888)
MAP4K4 (human) = MAP4K4 (human) (UniProt O95819)
STK32C (human) = STK32C (human) (UniProt Q86UX6)
PIM3 (human) = PIM3 (human) (UniProt Q86V86)
PRKCH (human) = PRKCH (human) (UniProt P24723)
PRPF4B (human) = PRPF4B (human) (UniProt Q13523)
ERBB3 (human) = ERBB3 (human) (UniProt P21860)
[3] = system: EGFR (human), P00533 [T790M/L858R]
CDK3 (human) = CDK3 (human) (UniProt Q00526)
CDKL1 (human) = CDKL1 (human) (UniProt Q00532)
[4] = molecular target: JAK3 JH1 catalytic (human) (UniProt P52333)
ZAP70 (human) = ZAP70 (human) (UniProt P43403)
IKBKB (human) = IKBKB (human) (UniProt O14920)
MUSK (human) = MUSK (human) (UniProt O15146)
EPHB2 (human) = EPHB2 (human) (UniProt P29323)
CDK4 CCND3 (human) = CDK4 CCND3 (human) (UniProt P11802+P30281)
CHEK2 (human) = CHEK2 (human) (UniProt O96017)

STK16 (human), sequence (O75716 whole entry, looked up): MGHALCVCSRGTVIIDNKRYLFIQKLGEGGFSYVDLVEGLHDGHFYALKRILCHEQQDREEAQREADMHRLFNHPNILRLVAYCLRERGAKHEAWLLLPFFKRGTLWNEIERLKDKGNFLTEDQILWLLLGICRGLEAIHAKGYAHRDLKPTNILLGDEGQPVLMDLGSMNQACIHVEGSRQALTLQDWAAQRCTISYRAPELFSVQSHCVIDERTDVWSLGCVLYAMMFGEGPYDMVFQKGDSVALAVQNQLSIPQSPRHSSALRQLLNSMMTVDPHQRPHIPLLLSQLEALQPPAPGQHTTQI
MAP3K6 (human), sequence (O95382 whole entry, looked up): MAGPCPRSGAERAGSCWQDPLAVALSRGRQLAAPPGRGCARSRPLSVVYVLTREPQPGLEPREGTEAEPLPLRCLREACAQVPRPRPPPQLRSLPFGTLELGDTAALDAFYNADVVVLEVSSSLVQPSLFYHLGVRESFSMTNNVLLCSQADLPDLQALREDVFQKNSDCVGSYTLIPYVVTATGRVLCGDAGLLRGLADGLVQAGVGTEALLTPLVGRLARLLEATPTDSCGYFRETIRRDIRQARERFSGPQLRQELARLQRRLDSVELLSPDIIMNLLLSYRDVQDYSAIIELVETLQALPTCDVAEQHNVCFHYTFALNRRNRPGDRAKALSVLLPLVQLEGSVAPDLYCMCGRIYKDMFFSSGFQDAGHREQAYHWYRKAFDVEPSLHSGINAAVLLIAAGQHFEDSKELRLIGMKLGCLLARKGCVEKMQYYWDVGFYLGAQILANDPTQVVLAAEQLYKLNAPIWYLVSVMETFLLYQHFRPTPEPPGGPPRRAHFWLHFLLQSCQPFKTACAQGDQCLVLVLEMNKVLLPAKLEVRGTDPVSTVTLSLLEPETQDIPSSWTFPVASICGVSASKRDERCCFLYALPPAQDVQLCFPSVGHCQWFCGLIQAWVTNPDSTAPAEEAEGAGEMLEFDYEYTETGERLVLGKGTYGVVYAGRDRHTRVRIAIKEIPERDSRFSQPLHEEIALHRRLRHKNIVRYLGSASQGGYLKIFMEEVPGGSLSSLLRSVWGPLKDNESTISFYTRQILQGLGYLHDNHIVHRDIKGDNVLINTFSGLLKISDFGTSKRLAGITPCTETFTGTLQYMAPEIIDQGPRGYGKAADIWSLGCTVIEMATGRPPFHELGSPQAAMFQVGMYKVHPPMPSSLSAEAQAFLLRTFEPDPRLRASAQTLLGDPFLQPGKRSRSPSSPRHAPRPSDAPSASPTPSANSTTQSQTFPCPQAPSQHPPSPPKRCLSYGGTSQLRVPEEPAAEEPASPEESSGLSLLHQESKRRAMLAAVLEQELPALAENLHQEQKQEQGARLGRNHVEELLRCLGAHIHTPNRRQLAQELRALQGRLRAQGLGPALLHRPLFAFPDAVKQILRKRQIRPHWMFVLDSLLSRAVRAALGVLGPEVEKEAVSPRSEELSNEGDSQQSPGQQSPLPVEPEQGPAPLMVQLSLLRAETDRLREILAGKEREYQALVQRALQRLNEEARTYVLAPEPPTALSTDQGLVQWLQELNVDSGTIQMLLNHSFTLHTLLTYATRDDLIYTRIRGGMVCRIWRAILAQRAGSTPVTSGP
MYLK2 (human), sequence (Q9H1R3 whole entry, looked up): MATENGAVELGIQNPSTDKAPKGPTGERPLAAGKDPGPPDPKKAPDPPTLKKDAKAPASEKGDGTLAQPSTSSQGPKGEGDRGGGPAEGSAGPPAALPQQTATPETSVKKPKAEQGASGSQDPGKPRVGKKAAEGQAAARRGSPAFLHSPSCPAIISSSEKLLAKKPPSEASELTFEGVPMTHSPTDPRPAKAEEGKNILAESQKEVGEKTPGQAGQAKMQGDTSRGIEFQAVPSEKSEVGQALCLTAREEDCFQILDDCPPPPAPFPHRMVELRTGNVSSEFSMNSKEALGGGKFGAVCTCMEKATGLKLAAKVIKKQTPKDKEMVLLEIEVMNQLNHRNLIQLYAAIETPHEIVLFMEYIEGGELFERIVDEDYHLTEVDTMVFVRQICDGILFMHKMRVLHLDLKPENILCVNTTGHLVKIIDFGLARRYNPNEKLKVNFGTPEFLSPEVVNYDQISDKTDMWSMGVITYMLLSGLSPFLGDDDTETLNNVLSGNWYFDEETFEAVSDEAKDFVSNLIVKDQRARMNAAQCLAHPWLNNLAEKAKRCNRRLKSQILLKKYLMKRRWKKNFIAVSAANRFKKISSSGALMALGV
ERBB3 (human), sequence (P21860 whole entry, looked up): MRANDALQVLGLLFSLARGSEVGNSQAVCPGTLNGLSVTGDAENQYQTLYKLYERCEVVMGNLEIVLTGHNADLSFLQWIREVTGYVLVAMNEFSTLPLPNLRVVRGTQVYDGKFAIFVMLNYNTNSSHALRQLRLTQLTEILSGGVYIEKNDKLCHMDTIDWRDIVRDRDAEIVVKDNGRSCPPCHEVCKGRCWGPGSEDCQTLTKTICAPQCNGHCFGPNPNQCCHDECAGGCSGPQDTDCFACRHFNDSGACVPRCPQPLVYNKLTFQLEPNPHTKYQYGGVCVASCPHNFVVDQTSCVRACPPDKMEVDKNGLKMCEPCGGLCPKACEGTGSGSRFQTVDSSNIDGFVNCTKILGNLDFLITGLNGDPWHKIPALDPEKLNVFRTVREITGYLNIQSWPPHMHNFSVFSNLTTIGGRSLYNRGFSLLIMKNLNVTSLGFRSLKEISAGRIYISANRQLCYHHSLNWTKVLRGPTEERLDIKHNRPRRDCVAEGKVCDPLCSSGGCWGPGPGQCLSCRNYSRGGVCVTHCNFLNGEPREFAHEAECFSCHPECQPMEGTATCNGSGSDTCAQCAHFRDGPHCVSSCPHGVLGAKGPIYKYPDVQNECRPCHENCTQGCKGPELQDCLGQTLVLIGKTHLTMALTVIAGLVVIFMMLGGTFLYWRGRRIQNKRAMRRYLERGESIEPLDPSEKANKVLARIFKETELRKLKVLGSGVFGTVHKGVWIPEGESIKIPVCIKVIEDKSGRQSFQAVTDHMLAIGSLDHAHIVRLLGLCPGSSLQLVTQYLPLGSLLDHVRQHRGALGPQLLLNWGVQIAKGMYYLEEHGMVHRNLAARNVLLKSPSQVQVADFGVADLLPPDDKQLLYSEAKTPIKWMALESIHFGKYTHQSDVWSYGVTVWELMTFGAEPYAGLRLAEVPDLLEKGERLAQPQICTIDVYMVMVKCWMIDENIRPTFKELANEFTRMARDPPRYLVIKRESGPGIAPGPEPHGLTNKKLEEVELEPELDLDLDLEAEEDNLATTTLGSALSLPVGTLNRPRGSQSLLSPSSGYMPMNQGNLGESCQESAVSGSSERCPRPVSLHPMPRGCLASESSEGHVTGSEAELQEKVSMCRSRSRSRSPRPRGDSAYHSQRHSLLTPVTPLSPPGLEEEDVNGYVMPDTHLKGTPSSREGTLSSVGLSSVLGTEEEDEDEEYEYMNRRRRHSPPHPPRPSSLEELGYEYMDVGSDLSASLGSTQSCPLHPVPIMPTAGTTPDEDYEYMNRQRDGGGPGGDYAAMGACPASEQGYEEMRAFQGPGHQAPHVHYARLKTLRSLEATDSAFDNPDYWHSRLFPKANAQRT
YES1 (human), sequence (P07947 whole entry, looked up): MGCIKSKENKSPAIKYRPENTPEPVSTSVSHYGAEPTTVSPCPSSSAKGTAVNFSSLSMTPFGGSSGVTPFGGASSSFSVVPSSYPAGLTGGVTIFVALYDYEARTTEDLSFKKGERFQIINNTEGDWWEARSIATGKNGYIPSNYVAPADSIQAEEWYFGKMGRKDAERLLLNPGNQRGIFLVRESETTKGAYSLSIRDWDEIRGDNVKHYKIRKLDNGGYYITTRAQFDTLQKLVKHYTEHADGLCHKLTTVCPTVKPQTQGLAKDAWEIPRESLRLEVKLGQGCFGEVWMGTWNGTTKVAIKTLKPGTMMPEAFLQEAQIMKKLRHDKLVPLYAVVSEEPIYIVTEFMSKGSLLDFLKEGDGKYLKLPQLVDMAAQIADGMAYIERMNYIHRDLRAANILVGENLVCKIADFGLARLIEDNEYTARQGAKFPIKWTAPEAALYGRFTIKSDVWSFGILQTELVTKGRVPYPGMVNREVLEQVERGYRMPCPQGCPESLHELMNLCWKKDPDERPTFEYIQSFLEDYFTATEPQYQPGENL
RPS6KA3 KD1 (human), sequence (P51812 whole entry, looked up): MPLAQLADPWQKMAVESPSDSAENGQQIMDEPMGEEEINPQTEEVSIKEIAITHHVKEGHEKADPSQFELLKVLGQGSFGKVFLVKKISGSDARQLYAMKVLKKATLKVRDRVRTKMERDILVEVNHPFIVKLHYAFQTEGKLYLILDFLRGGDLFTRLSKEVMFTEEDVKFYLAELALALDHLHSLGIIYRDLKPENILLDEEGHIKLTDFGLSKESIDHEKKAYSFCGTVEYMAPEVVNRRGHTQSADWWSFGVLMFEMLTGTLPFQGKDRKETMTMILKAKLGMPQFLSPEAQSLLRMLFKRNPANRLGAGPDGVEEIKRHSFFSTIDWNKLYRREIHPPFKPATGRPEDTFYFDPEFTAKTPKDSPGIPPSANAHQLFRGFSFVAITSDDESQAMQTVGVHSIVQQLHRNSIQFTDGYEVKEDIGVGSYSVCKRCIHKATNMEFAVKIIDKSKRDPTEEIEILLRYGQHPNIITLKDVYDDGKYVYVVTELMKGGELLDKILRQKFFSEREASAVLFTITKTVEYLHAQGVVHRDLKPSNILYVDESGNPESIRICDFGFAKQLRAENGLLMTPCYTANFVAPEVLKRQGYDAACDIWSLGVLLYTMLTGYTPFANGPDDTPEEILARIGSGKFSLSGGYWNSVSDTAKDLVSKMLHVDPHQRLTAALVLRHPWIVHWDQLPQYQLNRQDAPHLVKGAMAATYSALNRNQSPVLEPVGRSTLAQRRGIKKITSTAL

N#Cc1ccc2ncnc(NCCc3ccc4ccccc4c3)c2c1
kinase still bound, per cent of control (NUAK2 (human)): 77% | kinase still bound, per cent of control (MAPK1 (human)): 100% | kinase still bound, per cent of control [1]: 100% | kinase still bound, per cent of control (PHKG1 (human)): 100% | kinase still bound, per cent of control (CAMK2A (human)): 99% | kinase still bound, per cent of control (PAK6 (human)): 80% | kinase still bound, per cent of control (EGFR (human)): 75% | kinase still bound, per cent of control (ANKK1 (human)): 100% | kinase still bound, per cent of control (RPS6KA3 KD1 (human)): 97% | kinase still bound, per cent of control (TAOK1 (human)): 96% | kinase still bound, per cent of control (STK16 (human)): 51% | kinase still bound, per cent of control (YES1 (human)): 86% | kinase still bound, per cent of control (MAP3K6 (human)): 100% | kinase still bound, per cent of control (LYN (human)): 99% | kinase still bound, per cent of control (MYLK2 (human)): 99% | kinase still bound, per cent of control (MAP2K4 (human)): 89% | kinase still bound, per cent of control (CLK4 (human)): 60% | kinase still bound, per cent of control (CHUK (human)): 74% | kinase still bound, per cent of control (AAK1 (human)): 86% | kinase still bound, per cent of control (CAMK1G (human)): 86% | kinase still bound, per cent of control (AKT2 (human)): 100% | kinase still bound, per cent of control (EIF2AK1 (human)): 100% | kinase still bound, per cent of control (MAPK14 (human)): 100% | kinase still bound, per cent of control [2]: 98% | kinase still bound, per cent of control (RPS6KA5 KD1 (human)): 100% | kinase still bound, per cent of control (FLT3 (human)): 79% | kinase still bound, per cent of control (MAP4K4 (human)): 97% | kinase still bound, per cent of control (STK32C (human)): 100% | kinase still bound, per cent of control (PIM3 (human)): 100% | kinase still bound, per cent of control (PRKCH (human)): 100% | kinase still bound, per cent of control (PRPF4B (human)): 100% | kinase still bound, per cent of control (ERBB3 (human)): 100% | kinase still bound, per cent of control [3]: 100% | kinase still bound, per cent of control (CDK3 (human)): 100% | kinase still bound, per cent of control (CDKL1 (human)): 100% | kinase still bound, per cent of control [4]: 100% | kinase still bound, per cent of control (ZAP70 (human)): 94% | kinase still bound, per cent of control (IKBKB (human)): 100% | kinase still bound, per cent of control (MUSK (human)): 100% | kinase still bound, per cent of control (EPHB2 (human)): 99% | kinase still bound, per cent of control (CDK4 CCND3 (human)): 100% | kinase still bound, per cent of control (CHEK2 (human)): 62%
